ChEMBL document CHEMBL1158709, “Cytotoxic flavanones of Schizolaena hystrix from the Madagascar rainforest” (J Nat Prod, 2005)
Values after ≈ are worked out from the molar mass of the structure shown.

These compounds were tested on A2780 (assay: Cytotoxicity against human A2780 cells).
Type: functional, cell-based
CC(C)=CCC/C(C)=C/Cc1c(O)cc2c(c1O)C(=O)[C@H](O)[C@@H](c1ccc(O)cc1)O2 [BONANNIOL A] showed an IC50 of 25 µg/mL (≈ 58.9 µM). Work on CC(C)=CCC/C(C)=C/Cc1c(O)cc2c(c1O)C(=O)C[C@@H](c1ccc(O)c(O)c1)O2 [NYMPHAEOL A] yielded an IC50 of 5.5 µg/mL (≈ 13 µM). With CC(C)=CCC/C(C)=C/Cc1c(O)cc2c(c1O)C(=O)C[C@@H](c1ccc(O)cc1)O2 [BONANNIONE A] the IC50 was 12 µg/mL (≈ 29.4 µM). With CC(C)=CCC/C(C)=C/Cc1cc([C@@H]2CC(=O)c3c(cc(O)c(CC=C(C)C)c3O)O2)cc(O)c1O [SCHIZOLAENONE B] the IC50 was 11 µg/mL (≈ 22.3 µM). CC(C)=CCC/C(C)=C/Cc1cc([C@@H]2CC(=O)c3c(cc(O)c(CC=C(C)C)c3O)O2)ccc1O [SCHIZOLAENONE A] showed an IC50 of 10 µg/mL (≈ 21 µM). CC(C)=CCc1cc([C@@H]2CC(=O)c3c(cc(O)c(CC=C(C)C)c3O)O2)ccc1O [MACARANGAFLAVANONE B] was tested, and the IC50 was 16 µg/mL (≈ 39.2 µM). Work on COc1ccc([C@@H]2CC(=O)c3c(cc(O)c(C/C=C(\C)CCC=C(C)C)c3O)O2)cc1 yielded an IC50 of 17 µg/mL (≈ 40.2 µM).
